Experimental data from patent US20250214978A1, “AT2R AGONIST” (WUHAN HUMANWELL INNOVATIVE DRUG RESEARCH AND DEVELOPMENT …, priority 2022, published 2025).

Target: AT2R (Homo sapiens (Human), UniProt P50052)
Assay: Binding assay of compounds to AT2R (Tag-lite HTRF ligand binding kit)
Conditions: 1 hour incubation at room temperature
Method: The assay was performed in accordance with the instruction manual of Angiotensin AT2 Receptor Ligand Binding Assay Kit (#C1TT1AT2, Cisbio). First, a compound stock solution (10 mM) was diluted in a gradient at a 5× dilution ratio (including 10 concentrations, each with two replicates). 160 nL of compounds at different concentrations was added to a 384-well plate. 40 μL of 1×TLB was added to each well, and the mixture was shaken at room temperature for 15 minutes. 15 mL centrifuge tube added with 5 mL of 1×TLB was prepared in advance. The frozen labeled cells were thawed in a water bath at 37° C. (for 1 to 2 minutes), and the thawed cells were quickly transferred to the above 15 mL centrifuge tube. The mixture was mixed well and centrifuged at 1,000 g at room temperature for 5 minutes. The supernatant was removed, and the cells were resuspended by adding 2.7 mL 1×TLB. A new 384-well plate was taken, and 10 μL of mixed cells were added into the corresponding wells according to the assay design. 5 μL of 4× compound solution and 5 μL of 4× Tag-lite red fluorescent labeled ligand were added to each well. After incubation at room temperature for 1 hour, data were read using EnVision with an HTRF mode. The excitation light intensities at 665 nM and 615 nM in each well were read respectively, and the ratio was calculated (Ratio=A665nMIB615 nM). The IC50 value was calculated by means of GraphPad Prism8 software, where X represents logarithmic value of compound concentration; and Y represents ratio of A665 nM/B615 nM.

Chain of AT2R (P50052 whole entry): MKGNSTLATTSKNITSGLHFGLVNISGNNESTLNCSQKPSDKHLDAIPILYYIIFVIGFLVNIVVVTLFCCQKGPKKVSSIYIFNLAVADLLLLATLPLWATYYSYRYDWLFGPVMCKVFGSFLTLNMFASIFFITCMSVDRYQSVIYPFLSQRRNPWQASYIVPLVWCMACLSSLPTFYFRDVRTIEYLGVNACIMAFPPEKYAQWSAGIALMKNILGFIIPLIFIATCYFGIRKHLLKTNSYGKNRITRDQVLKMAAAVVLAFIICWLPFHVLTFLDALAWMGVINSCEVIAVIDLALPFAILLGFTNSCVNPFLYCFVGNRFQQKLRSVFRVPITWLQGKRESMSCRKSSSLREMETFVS

Row | IC50 [nM] | Compound
1 | 2.09 | COC(=O)NS(=O)(=O)c1sc(CC(C)C)cc1-c1ccc(Cn2ccnc2C(C)(C)C)cc1C#N [Compound I-17, Methyl (3-(4-((2-(tert-butyl)-1H-imidazol-1-yl)methyl)-2-cyanophenyl)-5-isobutylthiophen-2-yl)sulfonylcarbamate]
2 | 1.63 | Cc1nccn1Cc1ccc(-c2cc(CC(C)C)sc2S(=O)(=O)NC(=O)NCCC(F)(F)F)c(C#N)c1 [Compound I-18, 3-(2-cyano-4-((2-methyl-1H-imidazol-1-yl)methyl)phenyl)-5-isobutyl-N-((3,3,3-trifluoropropyl)carbamoyl)thiophene-2-sulfonamide]
3 | 1 | Cc1cc(Cn2ccnc2C)ccc1-c1cc(CC(C)C)sc1S(=O)(=O)NC(=O)NCc1ccccn1 [Compound I-19, 5-isobutyl-3-(2-methyl-4-((2-methyl-1H-imidazol-1-yl)methyl)phenyl)-N-((pyridin-2-ylmethyl)carbamoyl)thiophene-2-sulfonamide]
4 | 2.73 | COC(=O)NS(=O)(=O)c1sc(CC(C)C)cc1-c1ccc(Cn2ccnc2C)c(C)c1 [Compound I-21, Methyl ((5-isobutyl-3-(3-methyl-4-((2-methyl-1H-imidazol-1-yl)methyl)phenyl)thiophen-2-yl)sulfonyl)carbamate]
5 | 7.28 | CCNC(=O)NS(=O)(=O)c1sc(CC(C)C)cc1-c1ccc(Cn2ccnc2C)c(C)c1 [Compound I-22, N-(ethylcarbamoyl)-5-isobutyl-3-(3-methyl-4-((2-methyl-1H-imidazol-1-yl)methyl)phenyl)thiophene-2-sulfonamide]

Continued, compound first:

Row | Compound | IC50 [nM]
6 | CCCCOC(=O)NS(=O)(=O)c1sc(CC(C)C)cc1-c1ccc(Cn2ccnc2)cc1C [Compound I-1, Butyl ((3-(4-((1H-imidazol-1-yl)methyl)-2-methylphenyl)-5-isobutylthiophen-2-yl)sulfonyl)carbamate] | 4.28
7 | CCCCOC(=O)NS(=O)(=O)c1sc(CC(C)C)cc1-c1ccc(Cn2ccnc2)c(C)c1 [Compound I-2, Butyl ((3-(4-((1H-imidazol-1-yl)methyl)-3-methylphenyl)-5-isobutylthiophen-2-yl)sulfonyl)carbamate] | 3.32
8 | CCCCOC(=O)NS(=O)(=O)c1sc(CC(C)C)cc1-c1ccc(Cn2ccnc2)cc1C#N [Compound I-3, Butyl ((3-(4-((1H-imidazol-1-yl)methyl)-2-cyanophenyl)-5-isobutylthiophen-2-yl)sulfonyl)carbamate] | 3.95
9 | CCCCOC(=O)NS(=O)(=O)c1sc(CC(C)C)cc1-c1ccc(Cn2ccnc2)c(C#N)c1 [Compound I-4, Butyl ((3-(4-((1H-imidazol-1-yl)methyl)-3-cyanophenyl)-5-isobutylthiophen-2-yl)sulfonyl)carbamate] | 3.54
10 | CCCCOC(=O)NS(=O)(=O)c1sc(CC(C)C)cc1-c1ccc(Cn2ccnc2)nc1 [Compound I-6, Butyl ((3-(6-((1H-imidazol-1-yl)methyl)pyridin-3-yl)-5-isobutylthiophen-2-yl)sulfonyl)carbamate] | 11.4
11 | CCCCOC(=O)NS(=O)(=O)c1sc(CC(C)C)cc1-c1ccc(C(C)n2ccnc2)cc1 (stereo not shown) [Compound I-7, Butyl ((3-(4-(1-(1H-imidazol-1-yl)ethyl)phenyl)-5-isobutylthiophen-2-yl)sulfonyl)carbamate] | 3.8
12 | CCCCOC(=O)NS(=O)(=O)c1sc(CC(C)C)c(C)c1-c1ccc(Cn2ccnc2)cc1 [Compound I-8, Butyl ((3-(4-((1H-imidazol-1-yl)methyl)phenyl)-5-isobutyl-4-methylthiophen-2-yl)sulfonyl)carbamate] | 4.4
13 | COC(=O)NS(=O)(=O)c1sc(CC(C)C)cc1-c1ccc(Cn2ccnc2C)cc1C#N [Compound I-10, Methyl (3-(2-cyano-4-((2-methyl-1H-imidazol-1-yl)methyl)phenyl)-5-isobutylthiophen-2-yl)sulfonylcarbamate] | 2.15
